# In EP4603105A1, “PHARMACEUTICAL COMPOSITION CONTAINING CYCLIC COMPOUND HAVING SELECTIVE KRAS INHIBITORY EFFECT AGAINST HRAS AND NRAS” (CHUGAI SEIYAKU KABUSHIKI KAISHA, priority 2022, dated 2024):
# Where a SMILES comes first, the peptide text is derived from it. Bridges are numbered along the chain shown (N, C = ends). [ ]: non-standard residue; d: D form. The star is where a group is joined. hPhe(3,5-F2-4-CF3) = N[C@@H](CCc1cc(F)c(C(F)(F)F)c(F)c1)C(=O)O; hPhe(3-Cl-4-CF3) = N[C@@H](CCc1ccc(C(F)(F)F)c(Cl)c1)C(=O)O; NPrPhe(4-CF3) = CCCN[C@@H](Cc1ccc(C(F)(F)F)cc1)C(=O)O; Pip(4,4-F2) = O=C(O)[C@@H]1CC(F)(F)CCN1; NMeGly(cPent) = CN[C@H](C(=O)O)C1CCCC1; Pro(4,4-F2) = O=C(O)[C@@H]1CC(F)(F)CN1; NMeD = CN[C@@H](CC(=O)O)C(=O)O; NMeL = CN[C@@H](CC(C)C)C(=O)O; Iva = CC[C@](C)(N)C(=O)O; Morpholide = C1CN(*)CCO1; Ac5c = NC1(C(=O)O)CCCC1; Ac4c = NC1(C(=O)O)CCC1; NEtG = CCNCC(=O)O; Sar = CNCC(=O)O
# What was measured:
# [1] = molecular target: GDP-bound NRAS wild-type protein (Homo sapiens, UniProt P01111); assay: Binding to NRAS by surface plasmon resonance (SPR), KD and KD ratio to KRAS
# Procedure, shortened: (§1)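 Biotinylated GDP-bound RAS was captured at about 100–300 RU. Running buffer: HBS pH 7.4, 10 mM MgCl2, 10 µM GDP, 1 mM DTT, 0.01% Tween 20, 4% DMSO.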
# HRAS wild-type protein = HRAS wild-type protein (Homo sapiens, UniProt P01112); assay: Binding to HRAS by surface plasmon resonance (SPR), KD and KD ratio to KRAS
# Procedure, shortened: as §1
# [2] = test system: human lung cancer strain NCI-H441; assay type: cell-based
# Procedure, shortened: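 Step one: dispense the test compound in serial DMSO dilutions. Step three: add the reagent and measure […].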
# [3] = ratio of KD for GDP-bound NRAS wild-type protein to KD for KRAS
# [4] = ratio of KD for HRAS wild-type protein to KD for KRAS
# [5] = ratio of the KD value with respect to GDP-bound NRAS wild-type protein to the KD value with respect to KRAS
# [6] = ratio of the KD value with respect to HRAS wild-type protein to the KD value with respect to KRAS
# Sequence of HRAS wild-type protein (P01112 whole entry): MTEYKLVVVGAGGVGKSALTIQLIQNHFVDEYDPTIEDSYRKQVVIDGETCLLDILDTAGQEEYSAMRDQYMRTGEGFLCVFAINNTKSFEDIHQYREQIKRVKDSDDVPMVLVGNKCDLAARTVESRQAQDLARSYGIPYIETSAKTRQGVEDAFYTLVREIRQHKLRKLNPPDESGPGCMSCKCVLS
# Sequence of GDP-bound NRAS wild-type protein (P01111 whole entry): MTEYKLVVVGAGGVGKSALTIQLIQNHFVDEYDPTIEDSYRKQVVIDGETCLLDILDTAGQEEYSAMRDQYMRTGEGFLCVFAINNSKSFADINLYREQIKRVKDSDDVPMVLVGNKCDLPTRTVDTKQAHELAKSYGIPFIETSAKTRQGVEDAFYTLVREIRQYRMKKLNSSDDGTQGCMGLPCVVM
IC50 [2] [nM],Compound,"NRAS /KRAS [1, 3]",HRAS /KRAS (HRAS wild-type protein; [4]),"NRAS /KRAS [1, 5]",HRAS /KRAS (HRAS wild-type protein; [6]),NRAS /KRAS ([1]; ratio of KD value for GDP-bound NRAS wild-type protein to KD value for KRAS (SPR)),HRAS /KRAS (HRAS wild-type protein; ratio of KD value for HRAS wild-type protein to KD value for KRAS (SPR))
63.2,"CCCN1C(=O)CN(C)C(=O)CN(CC)C(=O)[C@H]([C@@H](C)CC)NC(=O)[C@H](CC(C)C)N(C)C(=O)C[C@@H](C(=O)N(C)C)NC(=O)[C@H](C2CCCC2)N(C)C(=O)C2(CCC2)NC(=O)[C@@H]2CC(F)(F)CN2C(=O)[C@H](CCc2ccc(C(F)(F)F)c(Cl)c2)NC(=O)CN(C)C(=O)[C@@H]1Cc1ccc(C(F)(F)F)cc1 [PP0370] ([NMeL]I[NEtG][Sar][NPrPhe(4-CF3)][Sar][hPhe(3-Cl-4-CF3)][Pro(4,4-F2)][Ac4c][NMeGly(cPent)]D-NMe2; lactam N-11)",B (a compound having 3 or more and less than 10 is denoted as B),C (A compound having a KD ratio of 0.1 or more and less than 3 is denoted as C),,,,
16.4,"CCCN1C(=O)CN(C)C(=O)CN(C)C(=O)[C@H]([C@@H](C)CC)NC(=O)[C@H](CC(C)C)N(C)C(=O)C[C@@H](C(=O)N2CCOCC2)N(C)C(=O)[C@H](C2CCCC2)N(C)C(=O)C2(CCCC2)NC(=O)[C@@H]2CC(F)(F)CCN2C(=O)[C@H](CCc2ccc(C(F)(F)F)c(Cl)c2)NC(=O)CN(C)C(=O)[C@@H]1Cc1ccc(C(F)(F)F)cc1 [PP0264] ([NMeL]I[Sar][Sar][NPrPhe(4-CF3)][Sar][hPhe(3-Cl-4-CF3)][Pip(4,4-F2)][Ac5c][NMeGly(cPent)][NMeD]-Morpholide; lactam N-11)",B (a compound having 3 or more and less than 10 is denoted as B),C (A compound having a KD ratio of 0.1 or more and less than 3 is denoted as C),,,,
92,CC[C@H](C)[C@@H]1NC(=O)[C@H](C(C)C)N(C)C(=O)C[C@@H](C(=O)N(C)CC)N(C)C(=O)[C@H](C2CCCC2)N(C)C(=O)C2(CC(C)(C)C2)NC(=O)[C@@H]2C[C@H](C)CN2C(=O)[C@H](CCc2cc(F)c(C(F)(F)F)c(F)c2)NC(=O)CN(C)C(=O)[C@H](Cc2ccc(C(F)(F)F)cc2)N2CC/C=C\C[C@@H](C2=O)N(C)C(=O)CN(C)C1=O [PP1976],,,AA (a compound having 20 or more is denoted as AA),A (a compound having 10 or more and less than 20 is denoted as A),,
79.7,CC[C@H](C)[C@@H]1NC(=O)[C@H](CC(C)C)N(C)C(=O)C[C@@H](C(=O)N2CCOCC2)N(C)C(=O)[C@H](C2CCCC2)N(C)C(=O)C2(CCC2)NC(=O)[C@@H]2[C@H](O)CCN2C(=O)[C@H](CCc2cc(F)c(C(F)(F)F)c(F)c2)NC(=O)CN(C)C(=O)[C@H](Cc2ccc(C(F)(F)F)cc2)N2CCCC[C@@H](C2=O)N(C)C(=O)CN(C)C1=O [PP0870],B (a compound having 3 or more and less than 10 is denoted as B),B (a compound having 3 or more and less than 10 is denoted as B),,,,
2.6,CCC[C@H]1C(=O)N[C@@H]([C@@H](C)CC)C(=O)N(C)CC(=O)N(C)[C@H]2C/C=C\CCN(C2=O)[C@@H](Cc2ccc(C)cc2)C(=O)N(C)CC(=O)N[C@@H](CCc2ccc(C(F)(F)F)c(OC)c2)C(=O)N2C[C@H](C)C[C@H]2C(=O)NC2(CC(C)(C)C2)C(=O)N(C)[C@@H](C2CCCC2)C(=O)N(C)[C@H](C(=O)N(C)CC)CC(=O)N1C [PP1891],,,,,A (a compound having 10 or more and less than 20 is denoted as A),A (a compound having 10 or more and less than 20 is denoted as A)
24,CCO[C@@H]1C[C@H]2C(=O)NC3(CC(C)(C)C3)C(=O)N(C)[C@@H](C(CC)CC)C(=O)N(C)[C@H](C(=O)N3CCCC3)CC(=O)N(C)[C@@H](COC)C(=O)N[C@@H]([C@@H](C)CC)C(=O)N(C)CC(=O)N(C)[C@H]3C/C=C\CCN(C3=O)[C@@H](Cc3ccc(C(F)(F)F)cc3)C(=O)N(C)CC(=O)N[C@@H](CCc3ccc(Cl)c(Cl)c3)C(=O)N2C1 [PP2174],,,AA (a compound having 20 or more is denoted as AA),A (a compound having 10 or more and less than 20 is denoted as A),,
243,"CCCN1C(=O)CN(C)C(=O)CNC(=O)[C@H]([C@@H](C)CC)NC(=O)[C@H](CC(C)C)N(C)C(=O)C[C@@H](C(=O)N2CCOCC2)NC(=O)[C@H](C2CCCC2)N(C)C(=O)C2(CCC2)NC(=O)[C@@H]2CC(F)(F)CN2C(=O)[C@H](CCc2ccc(C(F)(F)F)c(Cl)c2)NC(=O)CN(C)C(=O)[C@@H]1Cc1ccc(C(F)(F)F)cc1 [PP0328] ([NMeL]IG[Sar][NPrPhe(4-CF3)][Sar][hPhe(3-Cl-4-CF3)][Pro(4,4-F2)][Ac4c][NMeGly(cPent)]D-Morpholide; lactam N-11)",B (a compound having 3 or more and less than 10 is denoted as B),B (a compound having 3 or more and less than 10 is denoted as B),,,,
136,CCO[C@@H]1C[C@H]2C(=O)NC3(CCC3)C(=O)N(C)[C@@H](C3CCCC3)C(=O)N(CCC3CCCC3)[C@H](C(=O)N3CCOCC3)CC(=O)N(C)[C@@H](CC(C)C)C(=O)N[C@@H]([C@@H](C)CC)C(=O)N(C)CC(=O)N(C)[C@H]3CCCCN(C3=O)[C@@H](Cc3ccc(C(F)(F)F)cc3)C(=O)N(C)CC(=O)N[C@@H](CCc3cc(F)c(C(F)(F)F)c(F)c3)C(=O)N2C1 [PP0651],,,B (a compound having 3 or more and less than 10 is denoted as B),B (a compound having 3 or more and less than 10 is denoted as B),,
10.3,"CCCN1C(=O)CN(C)C(=O)CN(C)C(=O)[C@H]([C@@H](C)CC)NC(=O)[C@H](CC(C)C)N(C)C(=O)C[C@@H](C(=O)N(C)C)N(C)C(=O)[C@H](C2CCCC2)N(C)C(=O)[C@](C)(CC)NC(=O)[C@@H]2CCCN2C(=O)[C@H](CCc2cc(F)c(C(F)(F)F)c(F)c2)NC(=O)CN(C)C(=O)[C@@H]1Cc1ccc(C(F)(F)F)cc1 [PP0805] ([NMeL]I[Sar][Sar][NPrPhe(4-CF3)][Sar][hPhe(3,5-F2-4-CF3)]P[Iva][NMeGly(cPent)][NMeD]-NMe2; lactam N-11)",B (a compound having 3 or more and less than 10 is denoted as B),C (A compound having a KD ratio of 0.1 or more and less than 3 is denoted as C),,,,
50.8,CC[C@H](C)[C@@H]1NC(=O)[C@H](C2CCC2)N(C)C(=O)C[C@@H](C(=O)N(C)CC)N(C)C(=O)[C@H](C2CCCC2)N(C)C(=O)C2(CC(C)(C)C2)NC(=O)[C@@H]2C[C@H](C)CN2C(=O)[C@H](CCc2cc(F)c(C(F)(F)F)c(F)c2)NC(=O)CN(C)C(=O)[C@H](Cc2ccc(C(F)(F)F)cc2)N2CC/C=C\C[C@@H](C2=O)N(C)C(=O)CN(C)C1=O [PP1984],,,A (a compound having 10 or more and less than 20 is denoted as A),A (a compound having 10 or more and less than 20 is denoted as A),,
35,CCCN1C(=O)CN(C)C(=O)[C@@H]2CCCN2C(=O)[C@H]([C@@H](C)CC)NC(=O)[C@H](CC(C)C)N(C)C(=O)C[C@@H](C(=O)N2CCOCC2)N(C)C(=O)[C@H](C2CCCC2)N(C)C(=O)C2(CCCC2)NC(=O)[C@@H]2CCCN2C(=O)[C@H](CCc2ccc(C(F)(F)F)c(Cl)c2)NC(=O)CN(C)C(=O)[C@@H]1Cc1ccc(C(F)(F)F)cc1 [PP0165] ([NMeL]IP[Sar][NPrPhe(4-CF3)][Sar][hPhe(3-Cl-4-CF3)]P[Ac5c][NMeGly(cPent)][NMeD]-Morpholide; lactam N-11),B (a compound having 3 or more and less than 10 is denoted as B),B (a compound having 3 or more and less than 10 is denoted as B),,,,
